Data published in patent US20060251576A1, “Methods for measuring cholesterol metabolism and transport” (The Regents of the University of California, priority 2005, published 2006).

Test system: reverse cholesterol transport (RCT)
Experiment: Global RCT parameter in rats: Ra cholesterol combined with recovery of administered labeled cholesterol in fecal neutral sterols or bile acids
Assay type: in vivo
Conditions: for "global parameter" of RCT into neutral sterols (product of Ra cholesterol and excretion of plasma cholesterol): rats fed the agent for 7 days
Procedure: A refinement of the approach outlined in Example 1, involves calculating the Ra of plasma cholesterol and combining that measurement with the fractional excretion of administered cholesterol as described in Example 4. The recovery of plasma cholesterol in stool is defined as the proportion of administered labeled cholesterol that was excreted in fecal neutral sterols. It is expressed as % label recovered from day 1-4 following infusion. It is calculated from: % ^13C enrichment in fecal neutral sterols, the mg/day excretion of neutral sterols and divided by total mg 1 ^13C cholesterol administered. [formula] The same calculation is made for the recovery of plasma cholesterol into bile acids excreted in stool. Rats were treated with common and investigational cholesterol lowering agents, cholesterolamine, ezetimibe, LXR agonist (TO-901317). The Ra of cholesterol is calculated as described, the recovery of administered cholesterol in fecal sterol or bile acids are calculated as described.

SMILES | excretion of plasma cholesterol into neutral sterols and the global parameter of RCT (rats) | "global parameter" of RCT into neutral sterols (product of Ra cholesterol and excretion of plasma cholesterol) | plasma flux to neutral sterols (effect on RCT) (rats, FIG. 12)
O=S(=O)(c1ccccc1)N(CC(F)(F)F)c1ccc(C(O)(C(F)(F)F)C(F)(F)F)cc1 [TO-901317] | observed increase in RCT | significant increase observed | –
O=C1[C@H](CC[C@H](O)c2ccc(F)cc2)[C@@H](c2ccc(O)cc2)N1c1ccc(F)cc1 [ezetimibe] | – | significant increase observed | increase in plasma flux to neutral sterols
